The values that follow come from US20230257396A1, “MACROCYCLES AND THEIR USE” (BLOSSOMHILL THERAPEUTICS, INC., priority 2020, published 2023).

Holding throughout (assay): KINOMEscan kinase binding assay (Eurofins/DiscoveRx), % Ctrl
Test [1] concerns the target T1, kinases (Homo sapiens, UniProt P00533).
T1 construct: purchased Eurofins/DiscoveRx; host or cells: E. coli BL21-derived host (T7 phage display) for most kinases; HEK-293 for the rest
Put shortly:
(§1)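 Competition binding, 1 h RT: phage-tagged or HEK-293-expressed DNA-tagged kinase + immobilized ligand + compound. Eluate kinase by qPCR. % Ctrl = (test − positive ctrl)/(negative ctrl − positive ctrl) × 100; lower means stronger binding.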

Test [2] deals with T2, kinases (Homo sapiens, UniProt P10721, A829P).
T2 construct: purchased Eurofins/DiscoveRx; host or cells: E. coli BL21-derived host (T7 phage display) for most kinases; HEK-293 for the rest
Put shortly:
as §1

Test [3] has as its system kinases. Put shortly: as §1
Test [4] has as its target T3, kinases (Homo sapiens, UniProt P00519, Y253F).
T3 construct: purchased Eurofins/DiscoveRx; host or cells: E. coli BL21-derived host (T7 phage display) for most kinases; HEK-293 for the rest
Put shortly:
as §1

Test [5] deals with T4, kinases (Homo sapiens, UniProt P00533, L858R).
T4 construct: purchased Eurofins/DiscoveRx; host or cells: E. coli BL21-derived host (T7 phage display) for most kinases; HEK-293 for the rest
An outline of the steps: as §1

Test [6] has as its target T5, kinases (Homo sapiens, UniProt P00533, T790M).
T5 construct: purchased Eurofins/DiscoveRx; host or cells: E. coli BL21-derived host (T7 phage display) for most kinases; HEK-293 for the rest
Put shortly:
as §1

[7] abbreviates: 1 μM; target EGFR(L747-E749del, A750P).
Setting [8] is: 1 μM; target EGFR(L747-S752del, P753S).
[9] abbreviates: 1 μM; target EGFR(L747-T751del, Sins).
Setting [10] is: 1 μM; target ABL1(Y253F)-phosphorylated.

T2 sequence (P10721 26-976 A829P): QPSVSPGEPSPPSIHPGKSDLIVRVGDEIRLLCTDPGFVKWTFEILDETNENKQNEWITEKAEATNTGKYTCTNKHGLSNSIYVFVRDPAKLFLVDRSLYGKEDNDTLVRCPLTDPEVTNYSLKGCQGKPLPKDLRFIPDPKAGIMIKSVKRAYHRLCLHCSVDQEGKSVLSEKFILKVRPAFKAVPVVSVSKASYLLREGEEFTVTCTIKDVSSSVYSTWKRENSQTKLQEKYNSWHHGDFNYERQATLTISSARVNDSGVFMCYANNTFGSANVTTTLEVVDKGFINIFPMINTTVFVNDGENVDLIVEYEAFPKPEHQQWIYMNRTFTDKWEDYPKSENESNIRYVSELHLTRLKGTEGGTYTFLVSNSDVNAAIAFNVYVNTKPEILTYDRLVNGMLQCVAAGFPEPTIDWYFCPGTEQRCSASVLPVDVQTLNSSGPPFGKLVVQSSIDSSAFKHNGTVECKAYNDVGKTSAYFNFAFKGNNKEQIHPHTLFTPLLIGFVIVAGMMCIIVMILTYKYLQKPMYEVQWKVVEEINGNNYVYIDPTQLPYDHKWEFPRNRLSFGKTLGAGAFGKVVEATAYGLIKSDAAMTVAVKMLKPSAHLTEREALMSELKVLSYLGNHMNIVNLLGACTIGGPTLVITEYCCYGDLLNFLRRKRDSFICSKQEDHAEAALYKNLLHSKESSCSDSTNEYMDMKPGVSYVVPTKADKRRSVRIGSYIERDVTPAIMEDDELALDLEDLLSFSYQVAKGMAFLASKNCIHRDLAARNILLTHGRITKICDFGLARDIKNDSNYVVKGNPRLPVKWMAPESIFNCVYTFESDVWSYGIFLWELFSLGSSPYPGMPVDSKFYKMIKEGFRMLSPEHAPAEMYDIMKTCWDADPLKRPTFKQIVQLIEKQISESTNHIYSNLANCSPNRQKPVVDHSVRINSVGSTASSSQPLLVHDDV

For the molecule `CN1CCSCCOc2cc3c(cc2Cl)NC(=O)/C3=C\c2[nH]ccc2C1=O` [Ex. 153], the “% Ctrl, EGFR” value on kinases [1] (target EGFR; 1 μM) is reported as 61 % Ctrl. Also, the “% Ctrl, KIT(A829P)” value at kinases [2] (target KIT(A829P); 1 μM) was 43 % Ctrl. In addition, the “% Ctrl, EGFR(L747-E749del, A750P)” value in the test on kinases [3] (target EGFR(L747-E749del, A750P); 1 μM) worked out at 85 % Ctrl. Moreover, in the test on kinases [3] (target EGFR(L747-S752del, P753S); 1 μM), the “% Ctrl, EGFR(L747-S752del, P753S)” value stood at 57 % Ctrl. In addition, the “% Ctrl, EGFR(L747-T751del, Sins)” value in the test with kinases [3] (target EGFR(L747-T751del, Sins); 1 μM) is 38 % Ctrl. In the test with kinases [3] (target FLT3(ITD); 1 μM), the “% Ctrl, FLT3(ITD)” value was found to be 0.5 % Ctrl. The “% Ctrl, FLT3(ITD, D835V)” value in the test on kinases [3] (target FLT3(ITD, D835V); 1 μM) was found to be 0.5 % Ctrl. Also, the “% Ctrl, FLT3(ITD, F691L)” value in the test with kinases [3] (target FLT3(ITD, F691L); 1 μM) is on record as 0.5 % Ctrl. In addition, the “% Ctrl, ABL1(Y253F)-phosphorylated” value on kinases [4] (target ABL1(Y253F)-phosphorylated; 1 μM) is given as 13 % Ctrl. Moreover, the “% Ctrl, EGFR(L858R)” value at kinases [5] (target EGFR(L858R); 1 μM) was 86 % Ctrl. The “% Ctrl, EGFR(T790M)” value at kinases [6] (target EGFR(T790M); 1 μM) turned out to be 83 % Ctrl.

Turning to `Cc1cc2c([nH]1)/C=C1\C(=O)Nc3ccc(cc31)-c1c(noc1C(C)C)COCCN(C)C2=O` [Ex. 161, [3a(4)Z]-9-methyl-16-(propan-2-yl)-10,11-dihydro-2H,13H-1,17-(ethanediylidene)[1,2]oxazolo[4,3-m]dipyrrolo[3,2-f:3′,4′-i][1,4]oxazacyclopentadecine-3,8(5H,9H)-dione], on kinases [1] (1 μM; target EGFR), the “% Ctrl, EGFR” value is 73 % Ctrl. Moreover, at kinases [2] (1 μM; target KIT(A829P)), the “% Ctrl, KIT(A829P)” value amounted to 95 % Ctrl. For the same molecule, the “% Ctrl, EGFR(L747-E749del, A750P)” value in the test with kinases [3] (setting [7]) worked out at 100 % Ctrl. Besides, in the test on kinases [3] (setting [8]), the “% Ctrl, EGFR(L747-S752del, P753S)” value is listed as 80 % Ctrl. Also, the “% Ctrl, EGFR(L747-T751del, Sins)” value in the test on kinases [3] (setting [9]) stood at 93 % Ctrl. Besides, the “% Ctrl, FLT3(ITD)” value with kinases [3] (1 μM; target FLT3(ITD)) amounted to 85 % Ctrl. Also, the “% Ctrl, FLT3(ITD, D835V)” value in the test on kinases [3] (1 μM; target FLT3(ITD, D835V)) came out at 83 % Ctrl. In the test on kinases [3] (1 μM; target FLT3(ITD, F691L)), the “% Ctrl, FLT3(ITD, F691L)” value is 82 % Ctrl. For the same molecule, the “% Ctrl, ABL1(Y253F)-phosphorylated” value on kinases [4] (setting [10]) is 78 % Ctrl. The “% Ctrl, EGFR(L858R)” value at kinases [5] (1 μM; target EGFR(L858R)) was found to be 100 % Ctrl. Besides, the “% Ctrl, EGFR(T790M)” value at kinases [6] (1 μM; target EGFR(T790M)) is 100 % Ctrl.

In the case of `CN1CCOc2cc3c(cc2Cl)NC(=O)/C3=C\c2[nH]ccc2C(=O)N(C)CC1` [Ex. 164, [16a(17)Z]-19-chloro-2,5,8-trimethyl-5,6,7,8,9,10-hexahydro-12,14-(ethanediylidene)dipyrrolo[3,2-i:3′,4′-l][1,4,7]oxadiazacyclopentadecine-4,16(1H,15H)-dione], at kinases [1] (1 μM; target EGFR), the “% Ctrl, EGFR” value is given as 95 % Ctrl. Also, the “% Ctrl, KIT(A829P)” value on kinases [2] (1 μM; target KIT(A829P)) came to 33 % Ctrl. The “% Ctrl, EGFR(L747-E749del, A750P)” value in the test with kinases [3] (setting [7]) is 19 % Ctrl. Moreover, in the test on kinases [3] (setting [8]), the “% Ctrl, EGFR(L747-S752del, P753S)” value turned out to be 47 % Ctrl. The “% Ctrl, EGFR(L747-T751del, Sins)” value in the test with kinases [3] (setting [9]) was found to be 45 % Ctrl. Moreover, the “% Ctrl, FLT3(ITD)” value in the test on kinases [3] (1 μM; target FLT3(ITD)) stood at 0.9 % Ctrl. Also, the “% Ctrl, FLT3(ITD, D835V)” value in the test on kinases [3] (1 μM; target FLT3(ITD, D835V)) turned out to be 0.3 % Ctrl. For the same molecule, the “% Ctrl, FLT3(ITD, F691L)” value with kinases [3] (1 μM; target FLT3(ITD, F691L)) is 1 % Ctrl. For the same molecule, on kinases [4] (setting [10]), the “% Ctrl, ABL1(Y253F)-phosphorylated” value is on record as 0.1 % Ctrl. Besides, the “% Ctrl, EGFR(L858R)” value at kinases [5] (1 μM; target EGFR(L858R)) is recorded as 45 % Ctrl. Besides, the “% Ctrl, EGFR(T790M)” value at kinases [6] (1 μM; target EGFR(T790M)) amounted to 97 % Ctrl.

With `Cc1cc2c([nH]1)/C=C1\C(=O)Nc3ccc(cc31)-c1cnn(C)c1OCCCN(C)C2=O` [Ex. 166, [3a(4)Z]-9,14-dimethyl-9,10,11,12-tetrahydro-14H-1,17-(ethanediylidene)pyrazolo[4,3-n]dipyrrolo[3,2-g:3′,4′-j][1,5]oxazacyclopentadecine-3,8(2H,5H)-dione], the “% Ctrl, EGFR” value on kinases [1] (1 μM; target EGFR) is given as 70 % Ctrl. In addition, the “% Ctrl, KIT(A829P)” value at kinases [2] (1 μM; target KIT(A829P)) came out at 28 % Ctrl. Besides, in the test on kinases [3] (setting [7]), the “% Ctrl, EGFR(L747-E749del, A750P)” value is 62 % Ctrl. The “% Ctrl, EGFR(L747-S752del, P753S)” value in the test on kinases [3] (setting [8]) was determined as 98 % Ctrl. The “% Ctrl, EGFR(L747-T751del, Sins)” value in the test on kinases [3] (setting [9]) turned out to be 90 % Ctrl. Also, the “% Ctrl, FLT3(ITD)” value in the test with kinases [3] (1 μM; target FLT3(ITD)) came to 0.3 % Ctrl. In addition, in the test on kinases [3] (1 μM; target FLT3(ITD, D835V)), the “% Ctrl, FLT3(ITD, D835V)” value is reported as 0.6 % Ctrl. The “% Ctrl, FLT3(ITD, F691L)” value with kinases [3] (1 μM; target FLT3(ITD, F691L)) amounted to 0 % Ctrl. For the same molecule, at kinases [4] (setting [10]), the “% Ctrl, ABL1(Y253F)-phosphorylated” value was 11 % Ctrl. On kinases [5] (1 μM; target EGFR(L858R)), the “% Ctrl, EGFR(L858R)” value worked out at 85 % Ctrl. Also, on kinases [6] (1 μM; target EGFR(T790M)), the “% Ctrl, EGFR(T790M)” value is listed as 26 % Ctrl.

For `Cc1cc2c([nH]1)/C=C1\C(=O)Nc3cc(Cl)c(cc31)SCCOCCN(C)C2=O` [Ex. 169, [16a(17)Z]-19-chloro-5-methyl-6,7,9,10-tetrahydro-1H-12,14-(ethanediylidene)dipyrrolo[3,4-g:2′,3′-j][1,4,13]oxathiazacyclopentadecine-4,16(5H,15H)-dione], the “% Ctrl, EGFR” value on kinases [1] (1 μM; target EGFR) is given as 42 % Ctrl. For the same molecule, on kinases [2] (1 μM; target KIT(A829P)), the “% Ctrl, KIT(A829P)” value is recorded as 22 % Ctrl. Further, in the test with kinases [3] (setting [7]), the “% Ctrl, EGFR(L747-E749del, A750P)” value is 44 % Ctrl. For the same molecule, in the test with kinases [3] (setting [8]), the “% Ctrl, EGFR(L747-S752del, P753S)” value is given as 56 % Ctrl. The “% Ctrl, EGFR(L747-T751del, Sins)” value with kinases [3] (setting [9]) is 30 % Ctrl. Further, the “% Ctrl, FLT3(ITD)” value in the test on kinases [3] (1 μM; target FLT3(ITD)) is 0.9 % Ctrl. The “% Ctrl, FLT3(ITD, D835V)” value in the test with kinases [3] (1 μM; target FLT3(ITD, D835V)) was found to be 0.4 % Ctrl. Also, the “% Ctrl, FLT3(ITD, F691L)” value in the test with kinases [3] (1 μM; target FLT3(ITD, F691L)) is on record as 0.1 % Ctrl. The “% Ctrl, ABL1(Y253F)-phosphorylated” value on kinases [4] (setting [10]) is given as 0.1 % Ctrl. In addition, the “% Ctrl, EGFR(L858R)” value at kinases [5] (1 μM; target EGFR(L858R)) is 52 % Ctrl. Besides, on kinases [6] (1 μM; target EGFR(T790M)), the “% Ctrl, EGFR(T790M)” value is given as 69 % Ctrl.

Consider `Cc1cc2c([nH]1)/C=C1\C(=O)Nc3cnc(cc31)-c1cnn(C)c1CN(C)CCN(C)C2=O` [Ex. 172, [3a(4)Z]-6,9,12,14-tetramethyl-9,10,11,12,13,14-hexahydro-17,1-(azenometheno)pyrazolo[4,3-m]dipyrrolo[3,2-f:3′,4′-i][1,4]diazacyclopentadecine-3,8(2H,5H)-dione], for which the “% Ctrl, EGFR” value on kinases [1] (1 μM; target EGFR) is recorded as 36 % Ctrl. In addition, the “% Ctrl, KIT(A829P)” value on kinases [2] (1 μM; target KIT(A829P)) is reported as 31 % Ctrl. Further, the “% Ctrl, EGFR(L747-E749del, A750P)” value in the test on kinases [3] (setting [7]) came out at 62 % Ctrl. In addition, the “% Ctrl, EGFR(L747-S752del, P753S)” value in the test on kinases [3] (setting [8]) came out at 52 % Ctrl. Also, the “% Ctrl, EGFR(L747-T751del, Sins)” value with kinases [3] (setting [9]) was found to be 43 % Ctrl. Further, the “% Ctrl, FLT3(ITD)” value with kinases [3] (1 μM; target FLT3(ITD)) was 1.1 % Ctrl. Also, in the test on kinases [3] (1 μM; target FLT3(ITD, D835V)), the “% Ctrl, FLT3(ITD, D835V)” value came out at 0.3 % Ctrl. Besides, the “% Ctrl, FLT3(ITD, F691L)” value in the test with kinases [3] (1 μM; target FLT3(ITD, F691L)) is reported as 0.3 % Ctrl. For the same molecule, the “% Ctrl, ABL1(Y253F)-phosphorylated” value at kinases [4] (setting [10]) is reported as 0.2 % Ctrl. Also, the “% Ctrl, EGFR(L858R)” value on kinases [5] (1 μM; target EGFR(L858R)) came to 48 % Ctrl. Further, the “% Ctrl, EGFR(T790M)” value on kinases [6] (1 μM; target EGFR(T790M)) stood at 22 % Ctrl.
